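Exposure lasted 48 hours, with cells grown in 96-well plates and compounds tested at five concentrations. GI50 is the concentration that inhibits growth by half. The concentration for full growth arrest is given as TGI.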
Columns and labels:
Assay in all cases: NCI anticancer screen, dose series, 48 h
[1] = test system: OVCAR-8 ovarian
[2] = test system: HL-60(TB) leukemia
[3] = test system: SN12C renal
[4] = test system: HT29 colon
[5] = test system: SNB-19 CNS
[6] = test system: SF-539 CNS
[7] = test system: COLO 205 colon
[8] = test system: CAKI-1 renal
[9] = test system: BT-549 breast
[10] = test system: MDA-MB-435

| SMILES | TGI [1] | TGI [2] | TGI [3] | TGI [4] | TGI [5] | TGI [6] | TGI [7] | TGI [8] | GI50 [1] | GI50 [3] | GI50 [4] | GI50 [9] | TGI [9] | GI50 [8] | GI50 [5] | GI50 [6] | GI50 [10] | TGI [10] | GI50 [7] | GI50 [2] |
| --- | --- | --- | --- | --- | --- | --- | --- | --- | --- | --- | --- | --- | --- | --- | --- | --- | --- | --- | --- | --- |
| N/N=C(\c1nc2ccc(Cl)cc2[nH]c1=O)C(O)c1ccc(Cl)c(Cl)c1 (centres undefined) | > 100 µM | > 100 µM | > 100 µM | > 100 µM | > 100 µM | > 100 µM | > 100 µM | – | – | – | – | – | – | – | – | – | – | – | – | – |
| O=S(=O)(N=NC=C1c2ccccc2N(O)c2ccccc21)c1ccc(Cl)cc1 | > 100 µM | > 100 µM | > 100 µM | > 100 µM | > 100 µM | – | > 100 µM | > 100 µM | – | – | – | – | – | – | – | – | – | – | – | – |
| Cc1ccc(S(=O)(=O)c2ccc(C)cc2[N+](=O)[O-])cc1 | – | > 100 µM | > 100 µM | > 100 µM | > 100 µM | > 100 µM | > 100 µM | > 100 µM | – | – | – | – | – | – | – | – | – | – | – | – |
| COC(=O)/C(C#N)=C(\N)C(Cl)(Cl)Cl | 4.68 µM | 1.32 µM | 12.7 µM | – | > 100 µM | – | 4.72 µM | 17.5 µM | – | – | – | – | – | – | – | – | – | – | – | – |
| CC(=O)NNc1nc(C)c(C(=O)/C=C/c2ccc(Cl)cc2)s1 | > 100 µM | > 100 µM | – | > 100 µM | > 100 µM | > 100 µM | > 100 µM | > 100 µM | – | – | – | – | – | – | – | – | – | – | – | – |
| CCOC(=O)C1=C(C)N(NC(N)=O)C2(N)N(NC(N)=O)C(C)=C(C(=O)OCC)C12C(=O)OCC (centres undefined) | > 100 µM | – | > 100 µM | > 100 µM | > 100 µM | > 100 µM | – | > 100 µM | – | – | – | – | – | – | – | – | – | – | – | – |
| COc1cc(C(=O)O[C@H](C(=O)NCCN(C)CCNC(=O)[C@@H](OC(=O)c2cc(OC)cc3c(C)cccc23)[C@]2(C)CO2)[C@]2(C)CO2)c2cccc(C)c2c1 | < 0.0324 µM | – | 0.3 µM | > 27 µM | 1.18 µM | 0.0504 µM | 1.55 µM | 0.0477 µM | < 0.01 µM | < 0.0308 µM | < 0.0184 µM | 0.342 µM | 4.85 µM | < 0.01 µM | 0.265 µM | < 0.01 µM | < 0.01 µM | 0.0398 µM | 0.0391 µM | – |
| COC1CCC(OC)C(C2(C3CC(OC)CCC3OC)OC(=O)c3ccccc32)C1 (centres undefined) | > 100 µM | 45.1 µM | > 100 µM | > 100 µM | > 100 µM | > 100 µM | > 100 µM | > 100 µM | – | – | – | – | – | – | – | – | – | – | – | – |
| C=C1C(=O)O[C@H]2[C@H]1CC/C(COC(=O)CCCc1c[nH]c3ccccc13)=C\CC[C@@]1(C)O[C@@H]21 | 11.2 µM | 5.01 µM | 4.44 µM | 3.37 µM | 7.87 µM | 3.07 µM | 3.79 µM | – | 3.38 µM | 1.9 µM | 1.71 µM | 1.37 µM | 3.06 µM | – | 2.59 µM | 1.63 µM | 1.74 µM | 3.55 µM | 1.86 µM | 1.63 µM |
| Nc1nc(SCc2ccccc2Cl)cc(C(=O)O)n1 | > 100 µM | > 100 µM | > 100 µM | > 100 µM | > 100 µM | – | > 100 µM | > 100 µM | – | – | – | – | > 100 µM | – | – | – | – | > 100 µM | – | – |
| NCCNC(=O)c1cccc2cc3ccccc3nc12 | > 22.2 µM | – | 20.8 µM | 6.5 µM | 19.1 µM | 16.9 µM | – | > 23.4 µM | – | – | – | – | – | – | – | – | – | – | – | – |

Reference: PubChem BioAssay (NCI)
